These results are taken from patent US9226500B2, “Pesticidal compositions and processes related thereto” (Dow AgroSciences LLC, priority 2012, dated 2016).

Data set [1] deals with Corn Earworm (Helicoverpa zea). The data set can be described thus: Bioassay on Corn Earworm (CEW), 128-well diet tray assay. Format: in vivo. The following applies: Table 3, Assays Results Part 1. The protocol: (§1) Certain molecules disclosed in this document were tested against BAW, CEW and CL using procedures described in the following examples. In the reporting of the results, the “BAW & CEW & CL Rating Table” was used (See Table Section).
Bioassays on CEW (Helicoverpa zea)
Bioassays on CEW were conducted using a 128-well diet tray assay. One to five second instar CEW larvae were placed in each well (3 mL) of the diet tray that had been previously filled with 1 mL of artificial diet to which 50 μg/cm^2 of the test compound (dissolved in 50 μL of 90:10 acetone-water mixture) had been applied (to each of eight wells) and then allowed to dry. Trays were covered with a clear self-adhesive cover, and held at 25° C., 14:10 light-dark for five to seven days. Percent mortality was recorded for the larvae in each well; activity in the eight wells was then averaged. The results are indicated in the table entitled “Table 3: Assay Results Part 1” (See Table Section).

Data set [2] deals with Green Peach Aphid (Myzus persicae). The data set is described as follows: Bioassay on Green Peach Aphid (GPA), foliar spray on cabbage seedlings. Format: in vivo. The following applies: for pest or weed control at 200 ppm / pest or weed control at 200 µg/mL: Myzus persicae, 72 h, read-out: GPA Rating; for pest or weed control at 200 ppm: corrected % control (Abbott), 200 ppm foliar spray on cabbage seedlings, three days; for pest or weed control at 200 µg/mL: foliar, Table 5, Prophetic Compounds Subsequently Exemplified. The protocol:
Certain molecules disclosed in this document were tested against GPA using procedures described in the following example. In the reporting of the results, the “GPA Rating Table” was used (See Table Section). Cabbage seedlings grown in 3-inch pots, with 2-3 small (3-5 cm) true leaves, were used as test substrate. The seedlings were infested with 20-50 GPA (wingless adult and nymph stages) one day prior to chemical application. Four pots with individual seedlings were used for each treatment. Test compounds (2 mg) were dissolved in 2 mL of acetone/MeOH (1:1) solvent, forming stock solutions of 1000 ppm test compound. The stock solutions were diluted 5× with 0.025% Tween 20 in water to obtain the solution at 200 ppm test compound. A hand-held aspirator-type sprayer was used for spraying a solution to both sides of […] leaves until runoff. Reference plants (solvent check) were sprayed with the diluent only containing 20% by volume of acetone/MeOH (1:1) solvent. Treated plants were held in a holding room for three days at approximately 25° C. and ambient relative humidity (RH) prior to grading. Evaluation was conducted by counting the number of live aphids per plant under a microscope. Percent Control was measured by using Abbott's correction formula (W. S. Abbott, “A Method of Computing the Effectiveness of an Insecticide” J. Econ. Entomol. 18 (1925), pp. 265-267) as follows. Corrected % Control=100*(X−Y)/X • where • X=No. of live aphids on solvent check plants and • Y=No. of live aphids on treated plants The results are indicated in the tables entitled “Table 3: Assay Results Part 1” and “Table 4: Assay Results Part 2” (See Table Section).

Data set [3] deals with Cabbage Looper (Trichoplusia ni). The data set can be described thus: Bioassay on Cabbage Looper (CL), 128-well diet tray assay. It counts as in vivo. Particulars: 168 h, percent mortality of second instar larvae, 50 μg/cm^2 on artificial diet, five to seven days, 25° C., read-out: CL Rating. On the procedure: as §1
Bioassays on CL (Trichoplusia ni)
Bioassays on CL were conducted using a 128-well diet tray assay. One to five second instar CL larvae were placed in each well (3 mL) of the diet tray that had been previously filled with 1 mL of artificial diet to which 50 μg/cm^2 of the test compound (dissolved in 50 μL of 90:10 acetone-water mixture) had been applied (to each of eight wells) and then allowed to dry. Trays were covered with a clear self-adhesive cover, and held at 25° C., 14:10 light-dark for five to seven days. Percent mortality was recorded for the larvae in each well; activity in the eight wells was then averaged.
“Table 4: Assay Results Part 2” (See Table Section).

For data set [4], the system named is Beet Armyworm (Spodoptera exigua). The data set can be described thus: Bioassay on Beet Armyworm (BAW), 128-well diet tray assay. It counts as in vivo. Particulars: Spodoptera exigua, 168 h; percent mortality of second instar larvae, 50 μg/cm^2 on artificial diet, five to seven days, 25° C.; read-out: BAW Rating.
The test system is the same in data set [5]. Described as above. Format: in vivo. Particulars: Table 5, Performed at 12.5 μg/cm^2, read-out: BAW Rating.
The subject of data set [6] is Cabbage Looper (Trichoplusia ni). The data set is described as follows: Bioassay on Cabbage Looper (CL), 128-well diet tray assay. It counts as in vivo. The following applies: Table 5, Performed at 12.5 μg/cm^2, read-out: CL Rating.

SMILES strings stand for the structures.

In the case of `NC(=O)c1ccc(/C=C/C(c2cc(Cl)cc(Cl)c2)C(F)(F)F)cc1` (stereo not drawn) [AC2], the melting point was 110 to 112 °C.

In the case of `O=C(NCc1ccc(/C=C/C(c2cc(Cl)c(Cl)c(Cl)c2)C(F)(F)F)cc1C(F)(F)F)c1cccnc1` (stereo not drawn) [CC23], the “CEW Rating” value in data set [1] is on record as “A (50-100)”. Moreover, the “GPA Rating” value in data set [2] (Table 3, Assays Results Part 1) was “B (More than 0-Less than 80)”.

`O=C(NCc1ccc(/C=C/C(c2cc(Cl)c(Cl)c(Cl)c2)C(F)(F)F)cc1Cl)Oc1ccccc1Cl` (stereo not drawn) [CC40]: the “CEW Rating” value in data set [1] was “A (50-100)”.

As for `CC(C)(NC(=O)c1ccc(/C=C/C(c2cc(Cl)c(Cl)c(Cl)c2)C(F)(F)F)cc1Br)C(=O)NCC(F)(F)F` (stereo not drawn) [Compound F1, (E)-2-Bromo-N-(2-methyl-1-oxo-1-((2,2,2-trifluoroethyl)amino)propan-2-yl)-4-(4,4,4-trifluoro-3-(3,4,5-trichlorophenyl)but-1-en-1-yl)benzamide], the pest or weed control at 200 ppm in data set [2] lay within 0 to 80%. In addition, the pest or weed control at 50 µg/cm2, 50 µg/cm2 in data set [3] and in data set [4] was 50 to 100% throughout.

For `C[C@@H](NC(=O)c1ccc(/C=C/[C@H](c2cc(Cl)c(Cl)c(Cl)c2)C(F)(F)F)cc1C(F)(F)F)C(=O)NCC(F)(F)F` [Compound F20A, N—((R)-1-Oxo-1-((2,2,2-trifluoroethyl)amino)propan-2-yl)-4-((E)-4,4,4-trifluoro-3-(3,4,5-trichlorophenyl)but-1-en-1-yl)-2-(trifluoromethyl)benzamide], the pest or weed control at 200 ppm in data set [2] fell in the range of 80 to 100%. Also, the pest or weed control at 50 µg/cm2, 50 µg/cm2 in data set [3] and in data set [4] was 50 to 100% throughout.

`C[C@@H](NC(=O)c1ccc(/C=C/C(c2cc(F)cc(Br)c2)C(F)(F)F)cc1Br)C(=O)NCC(F)(F)F` (stereo partly drawn) [Compound P298]: the pest or weed control at 200 µg/mL in data set [2] lay within 0 to 80%.

As to `O=C(CNC(=O)c1ccc(/C=C/C(c2cc(Cl)cc(C(F)(F)F)c2)C(F)(F)F)cc1Br)NCC(F)(F)F` (stereo not drawn) [Compound P1411], in data set [2], the pest or weed control at 200 µg/mL is 0 to 80%.

`O=C(CNC(=O)c1ccc(/C=C/C(c2cc(Cl)c(Cl)c(Cl)c2)C(F)(F)F)cc1C(F)(F)F)NCC(F)F` (stereo not drawn) [Compound P1566]: the pest or weed control at 200 µg/mL in data set [2] was in the range of 80 to 100%.

In the case of `C[C@@H](NC(=O)c1ccc(/C=C/C(c2cc(Cl)c(Cl)c(Cl)c2)C(F)(F)C(F)(F)F)cc1C(F)(F)F)C(=O)NCC(F)(F)F` (stereo partly drawn) [Compound P1601], the pest or weed control at 200 µg/mL in data set [2] lay within 0 to 80%.

Consider `CCNC(=O)[C@@H](C)NC(=O)c1ccc(/C=C/C(c2cc(Cl)c(Cl)c(Cl)c2)C(F)(F)F)cc1C` (stereo partly drawn) [Compound P1624], for which the pest or weed control at 200 µg/mL in data set [2] was 80 to 100%.

Turning to `CC(NC(=O)c1ccc(/C=C/C(c2cc(Cl)c(Cl)c(Cl)c2)C(F)(F)F)cc1Br)C(=O)NCCC(F)(F)F` (stereo not drawn) [Compound P1631A], the pest or weed control at 200 µg/mL in data set [2] lay in the range of 0 to 80%.

Turning to `O=C(CNC(=O)c1ccc(/C=C/C(c2cc(Br)cc(Br)c2)C(F)(F)F)cc1Br)NCC(F)(F)F` (stereo not drawn) [Compound P1969], the pest or weed control at 12.5 µg/cm2, 12.5 µg/cm2 in data set [5] and in data set [6] was 50 to 100% throughout.

By melting point is commonly meant the temperature of the solid-liquid transition.
